Source: the supplement of paper PMC10307832

Columns and labels:
Experiment in all cases: relative viability (nuclei count vs DMSO), 5 days (fraction); higher = more cells survive
[1] = compound: CN[C@@H]1C[C@H]2O[C@@](C)([C@@H]1OC)n1c3ccccc3c3c4c(c5c6ccccc6n2c5c31)C(=O)NC4 [Staurosporine] + CCNC(=O)c1noc(-c2cc(C(C)C)c(O)cc2O)c1-c1ccc(CN2CCOCC2)cc1 [Luminespib] (partner 0.01 µM)
In short: (§1)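 Lung cancer cell lines in 1536-well plates were dosed by pin tool the day after seeding, either with one drug alone or with a fixed anchor-drug dose plus five library-drug doses (not always all listed) in √10 steps. After 5 days, cells were fixed and their nuclei stained in one step (final 0.05% Triton X-100, 1% formaldehyde, 1 ug/ml Hoechst), then counted on 4× images. Relative viability is the nuclei count in treated wells divided by that in vehicle wells. Values are medians of duplicate plates.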

[2] = compound: O=c1[nH]cc(F)c(=O)[nH]1 [5-Fluorouracil] + CCNC(=O)c1noc(-c2cc(C(C)C)c(O)cc2O)c1-c1ccc(CN2CCOCC2)cc1 [Luminespib] (partner 0.01 µM)
In short: as §1

[3] = compound: O=c1[nH]cc(F)c(=O)[nH]1 [5-Fluorouracil] + C[C@@H](Oc1cc(-c2cnn(C3CCNCC3)c2)cnc1N)c1c(Cl)ccc(F)c1Cl [Crizotinib] (partner 1 µM)
In short: as §1

[4] = compound: O=c1[nH]cc(F)c(=O)[nH]1 [5-Fluorouracil] + N=C(N)NC(=N)NCCc1ccccc1 [Phenformin] (partner 250 µM)
In short: as §1

HCC-44
relative viability ([1]; first compound 0.005 µM): 0.416
relative viability ([1]; first compound 0.01581 µM): 0.169
relative viability ([1]; first compound 0.05 µM): 0.161
relative viability ([1]; first compound 0.1581 µM): 0.187
relative viability ([1]; first compound 0.5 µM): 0.137
relative viability ([2]; first compound 0.02 µM): 1.29
relative viability ([2]; first compound 0.2 µM): 1.22
relative viability ([2]; first compound 0.6325 µM): 0.853
relative viability ([2]; first compound 2 µM): 0.355
relative viability ([3]; first compound 0.02 µM): 0.848
relative viability ([3]; first compound 0.2 µM): 0.768
relative viability ([3]; first compound 0.6325 µM): 0.578
relative viability ([3]; first compound 2 µM): 0.324
relative viability ([4]; first compound 0.2 µM): 0.262
relative viability ([4]; first compound 0.6325 µM): 0.154
relative viability ([4]; first compound 2 µM): 0.182

ChaGo-K-1
relative viability ([1]; first compound 0.005 µM): 0.7
relative viability ([1]; first compound 0.01581 µM): 0.344
relative viability ([1]; first compound 0.05 µM): 0.374
relative viability ([1]; first compound 0.1581 µM): 0.185
relative viability ([1]; first compound 0.5 µM): 0.176
relative viability ([2]; first compound 0.02 µM): 0.6
relative viability ([2]; first compound 0.2 µM): 0.513
relative viability ([2]; first compound 0.6325 µM): 0.406
relative viability ([2]; first compound 2 µM): 0.358
relative viability ([3]; first compound 0.02 µM): 1.15
relative viability ([3]; first compound 0.2 µM): 1.06
relative viability ([3]; first compound 0.6325 µM): 0.821
relative viability ([3]; first compound 2 µM): 0.711
relative viability ([4]; first compound 0.02 µM): 0.526
relative viability ([4]; first compound 0.2 µM): 0.476
relative viability ([4]; first compound 0.6325 µM): 0.433
relative viability ([4]; first compound 2 µM): 0.348

COR-L23
relative viability ([1]; first compound 0.005 µM): 0.262
relative viability ([1]; first compound 0.01581 µM): 0.324
relative viability ([1]; first compound 0.05 µM): 0.083
relative viability ([1]; first compound 0.1581 µM): 0.0871
relative viability ([1]; first compound 0.5 µM): 0.0485
relative viability ([2]; first compound 0.02 µM): 0.86
relative viability ([2]; first compound 0.2 µM): 0.691
relative viability ([2]; first compound 0.6325 µM): 0.512
relative viability ([2]; first compound 2 µM): 0.168
relative viability ([3]; first compound 0.02 µM): 0.789
relative viability ([3]; first compound 0.2 µM): 0.556
relative viability ([3]; first compound 0.6325 µM): 0.478
relative viability ([3]; first compound 2 µM): 0.148
relative viability ([4]; first compound 0.02 µM): 0.4
relative viability ([4]; first compound 0.2 µM): 0.427
relative viability ([4]; first compound 0.6325 µM): 0.278
relative viability ([4]; first compound 2 µM): 0.228

EMC-BAC-2
relative viability ([1]; first compound 0.005 µM): 0.844
relative viability ([1]; first compound 0.01581 µM): 0.33
relative viability ([1]; first compound 0.05 µM): 0.24
relative viability ([1]; first compound 0.1581 µM): 0.216
relative viability ([1]; first compound 0.5 µM): 0.211
relative viability ([2]; first compound 0.02 µM): 1.12
relative viability ([2]; first compound 0.2 µM): 1.23
relative viability ([2]; first compound 0.6325 µM): 1.22
relative viability ([2]; first compound 2 µM): 1.16
relative viability ([3]; first compound 0.02 µM): 0.871
relative viability ([3]; first compound 0.2 µM): 0.788
relative viability ([3]; first compound 0.6325 µM): 0.764
relative viability ([3]; first compound 2 µM): 0.767
relative viability ([4]; first compound 0.02 µM): 0.625
relative viability ([4]; first compound 0.2 µM): 0.542
relative viability ([4]; first compound 0.6325 µM): 0.498
relative viability ([4]; first compound 2 µM): 0.51

LCLC-103H
relative viability ([1]; first compound 0.005 µM): 0.8
relative viability ([1]; first compound 0.01581 µM): 0.369
relative viability ([1]; first compound 0.05 µM): 0.157
relative viability ([1]; first compound 0.1581 µM): 0.18
relative viability ([1]; first compound 0.5 µM): 0.177
relative viability ([2]; first compound 0.02 µM): 0.951
relative viability ([2]; first compound 0.2 µM): 0.999
relative viability ([2]; first compound 0.6325 µM): 0.521
relative viability ([2]; first compound 2 µM): 0.28
relative viability ([3]; first compound 0.02 µM): 1.1
relative viability ([3]; first compound 0.2 µM): 1.11
relative viability ([3]; first compound 0.6325 µM): 0.883
relative viability ([3]; first compound 2 µM): 0.566
relative viability ([4]; first compound 0.02 µM): 0.339
relative viability ([4]; first compound 0.2 µM): 0.327
relative viability ([4]; first compound 0.6325 µM): 0.258
relative viability ([4]; first compound 2 µM): 0.249

NCI-H460
relative viability ([1]; first compound 0.005 µM): 0.0316
relative viability ([1]; first compound 0.01581 µM): 0.0208
relative viability ([1]; first compound 0.05 µM): 0.0244
relative viability ([1]; first compound 0.1581 µM): 0.0122
relative viability ([1]; first compound 0.5 µM): 0.0179
relative viability ([2]; first compound 0.02 µM): 0.0365
relative viability ([2]; first compound 0.2 µM): 0.0336
relative viability ([2]; first compound 0.6325 µM): 0.0342
relative viability ([2]; first compound 2 µM): 0.0284
relative viability ([3]; first compound 0.02 µM): 1
relative viability ([3]; first compound 0.2 µM): 0.44
relative viability ([3]; first compound 0.6325 µM): 0.186
relative viability ([3]; first compound 2 µM): 0.0322
relative viability ([4]; first compound 0.02 µM): 0.551
relative viability ([4]; first compound 0.2 µM): 0.447
relative viability ([4]; first compound 0.6325 µM): 0.109
relative viability ([4]; first compound 2 µM): 0.0647

NCI-H3122
relative viability ([1]; first compound 0.005 µM): 0.0697
relative viability ([1]; first compound 0.05 µM): 0.0639
relative viability ([1]; first compound 0.1581 µM): 0.0502
relative viability ([1]; first compound 0.5 µM): 0.0521
relative viability ([2]; first compound 0.02 µM): 0.104
relative viability ([2]; first compound 0.2 µM): 0.09
relative viability ([2]; first compound 0.6325 µM): 0.095
relative viability ([2]; first compound 2 µM): 0.088
relative viability ([3]; first compound 0.02 µM): 0.252
relative viability ([3]; first compound 0.2 µM): 0.274
relative viability ([3]; first compound 0.6325 µM): 0.232
relative viability ([3]; first compound 2 µM): 0.215
relative viability ([4]; first compound 0.02 µM): 0.366
relative viability ([4]; first compound 0.2 µM): 0.349
relative viability ([4]; first compound 0.6325 µM): 0.21
relative viability ([4]; first compound 2 µM): 0.174

NCI-H2126
relative viability ([1]; first compound 0.005 µM): 0.547
relative viability ([1]; first compound 0.01581 µM): 0.318
relative viability ([1]; first compound 0.05 µM): 0.252
relative viability ([1]; first compound 0.1581 µM): 0.207
relative viability ([1]; first compound 0.5 µM): 0.207
relative viability ([2]; first compound 0.02 µM): 0.788
relative viability ([2]; first compound 0.2 µM): 0.371
relative viability ([2]; first compound 0.6325 µM): 0.302
relative viability ([2]; first compound 2 µM): 0.292
relative viability ([3]; first compound 0.02 µM): 0.962
relative viability ([3]; first compound 0.2 µM): 0.528
relative viability ([3]; first compound 0.6325 µM): 0.341
relative viability ([3]; first compound 2 µM): 0.307
relative viability ([4]; first compound 0.02 µM): 0.411
relative viability ([4]; first compound 0.2 µM): 0.331
relative viability ([4]; first compound 0.6325 µM): 0.314
relative viability ([4]; first compound 2 µM): 0.287

NCI-H596
relative viability ([1]; first compound 0.005 µM): 1.19
relative viability ([1]; first compound 0.01581 µM): 0.719
relative viability ([1]; first compound 0.05 µM): 0.509
relative viability ([1]; first compound 0.1581 µM): 0.237
relative viability ([1]; first compound 0.5 µM): 0.3
relative viability ([2]; first compound 0.02 µM): 1
relative viability ([2]; first compound 0.2 µM): 0.728
relative viability ([2]; first compound 0.6325 µM): 0.726
relative viability ([2]; first compound 2 µM): 0.542
relative viability ([3]; first compound 0.02 µM): 0.971
relative viability ([3]; first compound 0.2 µM): 0.788
relative viability ([3]; first compound 0.6325 µM): 0.64
relative viability ([3]; first compound 2 µM): 0.578
relative viability ([4]; first compound 0.02 µM): 0.863
relative viability ([4]; first compound 0.2 µM): 0.676
relative viability ([4]; first compound 0.6325 µM): 0.643
relative viability ([4]; first compound 2 µM): 0.508

LOU-NH91
relative viability ([1]; first compound 0.005 µM): 0.355
relative viability ([1]; first compound 0.01581 µM): 0.279
relative viability ([1]; first compound 0.05 µM): 0.209
relative viability ([1]; first compound 0.1581 µM): 0.289
relative viability ([1]; first compound 0.5 µM): 0.212
relative viability ([2]; first compound 0.02 µM): 0.37
relative viability ([2]; first compound 0.2 µM): 0.355
relative viability ([2]; first compound 0.6325 µM): 0.332
relative viability ([2]; first compound 2 µM): 0.277
relative viability ([3]; first compound 0.02 µM): 0.798
relative viability ([3]; first compound 0.2 µM): 0.697
relative viability ([3]; first compound 0.6325 µM): 0.547
relative viability ([3]; first compound 2 µM): 0.341
relative viability ([4]; first compound 0.02 µM): 0.731
relative viability ([4]; first compound 0.2 µM): 0.858
relative viability ([4]; first compound 0.6325 µM): 0.589
relative viability ([4]; first compound 2 µM): 0.298

NCI-H1651
relative viability ([1]; first compound 0.005 µM): 0.793
relative viability ([1]; first compound 0.01581 µM): 0.614
relative viability ([1]; first compound 0.05 µM): 0.459
relative viability ([1]; first compound 0.1581 µM): 0.173
relative viability ([1]; first compound 0.5 µM): 0.116
relative viability ([2]; first compound 0.02 µM): 1.02
relative viability ([2]; first compound 0.2 µM): 0.764
relative viability ([2]; first compound 0.6325 µM): 0.588
relative viability ([2]; first compound 2 µM): 0.466
relative viability ([3]; first compound 0.02 µM): 0.825
relative viability ([3]; first compound 0.2 µM): 0.838
relative viability ([3]; first compound 0.6325 µM): 0.452
relative viability ([3]; first compound 2 µM): 0.38
relative viability ([4]; first compound 0.02 µM): 0.395
relative viability ([4]; first compound 0.2 µM): 0.334
relative viability ([4]; first compound 0.6325 µM): 0.265
relative viability ([4]; first compound 2 µM): 0.341

NCI-H520
relative viability ([1]; first compound 0.005 µM): 0.194
relative viability ([1]; first compound 0.01581 µM): 0.309
relative viability ([1]; first compound 0.05 µM): 0.233
relative viability ([1]; first compound 0.1581 µM): 0.212
relative viability ([1]; first compound 0.5 µM): 0.185
relative viability ([2]; first compound 0.02 µM): 0.19
relative viability ([2]; first compound 0.2 µM): 0.236
relative viability ([2]; first compound 0.6325 µM): 0.19
relative viability ([2]; first compound 2 µM): 0.21
relative viability ([3]; first compound 0.02 µM): 0.819
relative viability ([3]; first compound 0.2 µM): 0.832
relative viability ([3]; first compound 0.6325 µM): 0.6
relative viability ([3]; first compound 2 µM): 0.372
relative viability ([4]; first compound 0.02 µM): 0.525
relative viability ([4]; first compound 0.2 µM): 0.677
relative viability ([4]; first compound 0.6325 µM): 0.46
relative viability ([4]; first compound 2 µM): 0.442
